Measured values: patent US20060069132A1, “Azolecarboxamide herbicides” (priority 2004, published 2006)

Key:
barnyardgrass [1] = experiment: Test B pre-/postemergence herbicide test; assay type: in vivo, Echinochloa crus-galli; details: for Plant response rating (0 to 100 scale), Barnyardgrass: 0 is no effect, preemergence; for Barnyardgrass plant response rating: postemergence
How it was run: (§1)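 Pre: seeds sown, then sprayed. Post: 1–4-leaf plants (2–18 cm) sprayed at the same time. Paddy: flooded, treated at 2-leaf stage. Formulation: non-phytotoxic solvent with surfactant. Greenhouse 13–15 days; visual 0–100 score relative to controls.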

Surinam grass = experiment: Test B pre-/postemergence herbicide test; assay type: in vivo, Urochloa decumbens; details: for Plant response rating (0 to 100 scale), Surinam Grass: 0 is no effect, 100 is complete control, preemergence; for Surinam Grass plant response rating: scale 0 (no effect) to 100 (complete control)
How it was run: (§2)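 Test chemicals in a non-phytotoxic solvent mixture with surfactant were applied preemergence to seeded species and postemergence to plants 2-18 cm tall (1- to 4-leaf stage); rice and barnyardgrass were also tested in a flooded paddy at the 2-leaf stage. Visual rating versus controls after 13-15 days in greenhouse, scale 0 (no effect) to 100 (complete control).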

cocklebur = experiment: Test B pre-/postemergence herbicide test; assay type: in vivo, Xanthium strumarium; details: for Plant response rating (0 to 100 scale), Cocklebur: 0 is no effect, preemergence; for Cocklebur plant response rating: postemergence
How it was run: as §1

corn = experiment: Test B pre-/postemergence herbicide test; assay type: in vivo, Zea mays; details: for Plant response rating (0 to 100 scale), Corn: 0 is no effect, preemergence; for Corn plant response rating: postemergence
How it was run: as §2

large crabgrass = experiment: Test B pre-/postemergence herbicide test; assay type: in vivo, Digitaria sanguinalis; details: for Plant response rating (0 to 100 scale), Crabgrass, Large: 0 is no effect, preemergence; for Crabgrass, Large plant response rating: postemergence
How it was run: as §2

giant foxtail = experiment: Test B pre-/postemergence herbicide test; assay type: in vivo, Setaria faberi; details: for Plant response rating (0 to 100 scale), Foxtail, Giant: 0 is no effect, preemergence; for Foxtail, Giant plant response rating: postemergence
How it was run: as §2

lambsquarters = experiment: Test B pre-/postemergence herbicide test; assay type: in vivo, Chenopodium album; details: for Plant response rating (0 to 100 scale), Lambsquarters: 0 is no effect, 100 is complete control, preemergence; for Lambsquarters plant response rating: scale 0 (no effect) to 100 (complete control)
How it was run: as §2

morningglory = experiment: Test B pre-/postemergence herbicide test; assay type: in vivo, Ipomoea coccinea; details: for Plant response rating (0 to 100 scale), Morningglory: 0 is no effect, 100 is complete control, preemergence; for Morningglory plant response rating: scale 0 (no effect) to 100 (complete control)
How it was run: as §1

pigweed = experiment: Test B pre-/postemergence herbicide test; assay type: in vivo, Amaranthus retroflexus; details: for Plant response rating (0 to 100 scale), Pigweed: 0 is no effect, 100 is complete control, preemergence; for Pigweed plant response rating: scale 0 (no effect) to 100 (complete control)
How it was run: as §2

velvetleaf = experiment: Test B pre-/postemergence herbicide test; assay type: in vivo, Abutilon theophrasti; details: for Plant response rating (0 to 100 scale), Velvetleaf: 0 is no effect, 100 is complete control, preemergence; for Velvetleaf plant response rating: scale 0 (no effect) to 100 (complete control)
How it was run: as §2

blackgrass = experiment: Test B postemergence herbicide test; assay type: in vivo, Alopecurus myosuroides; details: postemergence
How it was run: (§3)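 Read-out: visual comparison with controls, scored 0 to 100, where 100 means complete control and 0 no effect. Formulated chemicals were applied postemergence to plants 2–18 cm tall (1- to 4-leaf), or to flooded-paddy plants at the 2-leaf stage, then held 13 to 15 days under glass.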

wheat = experiment: Test B postemergence herbicide test; assay type: in vivo, Triticum aestivum; parameters: key to Wheat plant response rating: 0 = no effect, 100 = complete control
How it was run: (§4)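 Postemergence plants were sprayed with formulated test chemicals at 2 to 18 cm height (1- to 4-leaf stage); paddy species were grown to the 2-leaf stage. After 13 to 15 days in a greenhouse, injury was rated visually against untreated controls on a 0–100 scale (0 = no effect, 100 = complete control).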

wild oat = experiment: Test B postemergence herbicide test; assay type: in vivo, Avena fatua; details: scale 0 (no effect) to 100 (complete control)
How it was run: as §4

rice = experiment: Test B flooded paddy test; assay type: in vivo, Oryza sativa; details: 1000 g ai/ha, scale 0 to 100 (0 no effect, 100 complete control)
How it was run: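 Paddy species grown to the 2-leaf stage under flooding; blackgrass sprayed postemergence at 2–18 cm (1- to 4-leaf stage). Plants kept in a greenhouse for 13 to 15 days, then visually rated against controls on 0 (no effect) to 100 (complete control).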

[2] = test system: small flower umbrella sedge; experiment: Test B flooded paddy test; assay type: in vivo, Cyperus difformis; details: 1000 g ai/ha, scale 0 to 100 (0 no effect, 100 complete control)
How it was run: as §3

ducksalad = experiment: Test B flooded paddy test; assay type: in vivo, Heteranthera limosa; details: 1000 g ai/ha, scale 0 to 100 (0 no effect, 100 complete control)
How it was run: as §3

barnyardgrass [3] = experiment: Test B flooded paddy test; assay type: in vivo, Echinochloa crus-galli; details: 1000 g ai/ha, scale 0 to 100 (0 no effect, 100 complete control)
How it was run: as §3

[4] = 125 g ai/ha, 100 is complete control
[5] = 125 g ai/ha, visual rating, scale 0 (no effect) to 100 (complete control)
[6] = 500 g ai/ha, scale 0 to 100, 0 is no effect, 100 is complete control
[7] = 125 g ai/ha, visual rating, postemergence
[8] = 125 g ai/ha, visual rating, scale 0 (no effect) to 100 (complete control), postemergence
[9] = 500 g ai/ha, scale 0 to 100, 0 no effect, 100 complete control, preemergence
[10] = Postemergence, 500 g ai/ha, scale 0 (no effect) to 100 (complete control)

C=CCN(CC=C)C(=O)c1ccc(F)c(NC(=O)c2nn(C(C)(C)C)nc2CC)c1 [Compound 387]
20: Cocklebur plant response rating (cocklebur; [6]) | Foxtail, Giant plant response rating (giant foxtail; [6]) | Lambsquarters plant response rating (lambsquarters; [7]) | Lambsquarters plant response rating (lambsquarters; Postemergence, 500 g ai/ha) | Pigweed plant response rating (pigweed; [7]) | Blackgrass plant response rating (blackgrass; [6])
10: Morningglory plant response rating (morningglory; Postemergence, 500 g ai/ha) | Velvetleaf plant response rating (velvetleaf; Postemergence, 500 g ai/ha) | Wheat plant response rating (wheat; [10])
0: Plant response rating (0 to 100 scale), Barnyardgrass (barnyardgrass [1]; [4]) | Barnyardgrass plant response rating (barnyardgrass [1]; [5]) | Barnyardgrass plant response rating (barnyardgrass [1]; [6]) | Plant response rating (0 to 100 scale), Surinam Grass (Surinam grass; 125 g ai/ha) | Surinam Grass plant response rating (Surinam grass; [7]) | Surinam Grass plant response rating (Surinam grass; Postemergence, 500 g ai/ha) | Plant response rating (0 to 100 scale), Cocklebur (cocklebur; [4]) | Cocklebur plant response rating (cocklebur; [5]) | Plant response rating (0 to 100 scale), Corn (corn; [4]) | Corn plant response rating (corn; [5]) | Corn plant response rating (corn; [6]) | Plant response rating (0 to 100 scale), Crabgrass, Large (large crabgrass; [4]) | Crabgrass, Large plant response rating (large crabgrass; [5]) | Crabgrass, Large plant response rating (large crabgrass; [6]) | Plant response rating (0 to 100 scale), Foxtail, Giant (giant foxtail; [4]) | Foxtail, Giant plant response rating (giant foxtail; [5]) | Plant response rating (0 to 100 scale), Lambsquarters (lambsquarters; 125 g ai/ha) | Plant response rating (0 to 100 scale), Morningglory (morningglory; 125 g ai/ha) | Morningglory plant response rating (morningglory; [7]) | Plant response rating (0 to 100 scale), Pigweed (pigweed; 125 g ai/ha) | Plant response rating (0 to 100 scale), Velvetleaf (velvetleaf; 125 g ai/ha) | Velvetleaf plant response rating (velvetleaf; [7]) | Blackgrass plant response rating (blackgrass; [5]) | Wheat plant response rating (wheat; [8]) | Wheat plant response rating (wheat; [9]) | Oat, Wild plant response rating (wild oat; [7]) | Rice plant response rating (rice) | Sedge, Umbrella plant response rating [2] | Ducksalad plant response rating (ducksalad) | Barnyardgrass plant response rating (barnyardgrass [3])
40: Pigweed plant response rating (pigweed; Postemergence, 500 g ai/ha)
30: Oat, Wild plant response rating (wild oat; Postemergence, 500 g ai/ha)

C#CCNC(=O)c1cccc(NC(=O)c2nn(C(C)C)nc2CC)c1 [Compound 379]
10: Surinam Grass plant response rating (Surinam grass; [7]) | Cocklebur plant response rating (cocklebur; [6]) | Crabgrass, Large plant response rating (large crabgrass; [5]) | Crabgrass, Large plant response rating (large crabgrass; [6]) | Foxtail, Giant plant response rating (giant foxtail; [5]) | Foxtail, Giant plant response rating (giant foxtail; [6]) | Plant response rating (0 to 100 scale), Morningglory (morningglory; 125 g ai/ha) | Plant response rating (0 to 100 scale), Velvetleaf (velvetleaf; 125 g ai/ha) | Velvetleaf plant response rating (velvetleaf; Postemergence, 500 g ai/ha)
50: Lambsquarters plant response rating (lambsquarters; Postemergence, 500 g ai/ha) | Pigweed plant response rating (pigweed; Postemergence, 500 g ai/ha) | Rice plant response rating (rice)
70: Sedge, Umbrella plant response rating [2] | Ducksalad plant response rating (ducksalad)
40: Morningglory plant response rating (morningglory; Postemergence, 500 g ai/ha) | Barnyardgrass plant response rating (barnyardgrass [3])
20: Surinam Grass plant response rating (Surinam grass; Postemergence, 500 g ai/ha) | Plant response rating (0 to 100 scale), Crabgrass, Large (large crabgrass; [4]) | Lambsquarters plant response rating (lambsquarters; [7]) | Morningglory plant response rating (morningglory; [7]) | Plant response rating (0 to 100 scale), Pigweed (pigweed; 125 g ai/ha) | Pigweed plant response rating (pigweed; [7]) | Wheat plant response rating (wheat; [9])
0: Plant response rating (0 to 100 scale), Barnyardgrass (barnyardgrass [1]; [4]) | Barnyardgrass plant response rating (barnyardgrass [1]; [5]) | Barnyardgrass plant response rating (barnyardgrass [1]; [6]) | Plant response rating (0 to 100 scale), Surinam Grass (Surinam grass; 125 g ai/ha) | Plant response rating (0 to 100 scale), Cocklebur (cocklebur; [4]) | Cocklebur plant response rating (cocklebur; [5]) | Plant response rating (0 to 100 scale), Corn (corn; [4]) | Corn plant response rating (corn; [5]) | Corn plant response rating (corn; [6]) | Plant response rating (0 to 100 scale), Foxtail, Giant (giant foxtail; [4]) | Plant response rating (0 to 100 scale), Lambsquarters (lambsquarters; 125 g ai/ha) | Velvetleaf plant response rating (velvetleaf; [7]) | Blackgrass plant response rating (blackgrass; [5]) | Blackgrass plant response rating (blackgrass; [6]) | Wheat plant response rating (wheat; [8]) | Wheat plant response rating (wheat; [10]) | Oat, Wild plant response rating (wild oat; [7]) | Oat, Wild plant response rating (wild oat; Postemergence, 500 g ai/ha)
